Results taken from patent publication US8815857B2 (Boehringer Ingelheim International GmbH, priority 2011, dated 2014).
Converted amounts (≈) assume the structure as drawn.

How the values were obtained:
[1] = Assessment of solubility: HT solubility in pION buffer, UV spectrophotometry; details: kinetic from dmso stock
[2] = molecular target: T1, human soluble guanylate cyclase alpha 1 and beta 1 subunits (sGC) stably expressed in Chinese hamster ovary cells (Homo sapiens, UniProt Q02108+Q02153); assay: sGC cellular activator assay: cGMP in CHO cells expressing human sGC, preincubated with ODQ; type: cell-based; details: 40 microM ODQ preincubation, 30 min at room temperature, presence or absence of 50% human serum not given, read-out: EC50 nM, Activity of Compounds in Cellular Assay
T1 construct: expressed in transfected cells; host or cells: Chinese hamster ovary cells, stably transfected
T1 sequence (Q02108 1-690 partner): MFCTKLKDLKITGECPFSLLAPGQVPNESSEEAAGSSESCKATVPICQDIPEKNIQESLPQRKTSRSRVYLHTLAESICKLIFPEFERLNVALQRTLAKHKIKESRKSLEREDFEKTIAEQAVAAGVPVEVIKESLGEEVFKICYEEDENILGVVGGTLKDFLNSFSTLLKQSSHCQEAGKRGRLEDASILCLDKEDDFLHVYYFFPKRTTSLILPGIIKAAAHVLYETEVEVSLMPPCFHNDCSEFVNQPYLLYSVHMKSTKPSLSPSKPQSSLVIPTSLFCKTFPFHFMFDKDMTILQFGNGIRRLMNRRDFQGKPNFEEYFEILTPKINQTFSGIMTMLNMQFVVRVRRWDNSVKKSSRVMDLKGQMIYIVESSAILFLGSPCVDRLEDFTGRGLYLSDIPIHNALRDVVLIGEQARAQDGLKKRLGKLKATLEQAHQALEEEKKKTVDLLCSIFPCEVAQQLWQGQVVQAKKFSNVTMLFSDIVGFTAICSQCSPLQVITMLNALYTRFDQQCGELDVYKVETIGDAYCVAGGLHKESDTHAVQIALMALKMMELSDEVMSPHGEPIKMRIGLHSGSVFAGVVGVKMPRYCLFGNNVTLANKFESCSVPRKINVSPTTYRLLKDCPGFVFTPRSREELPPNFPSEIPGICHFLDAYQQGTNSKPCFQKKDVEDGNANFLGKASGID
T1 sequence (Q02153 1-619): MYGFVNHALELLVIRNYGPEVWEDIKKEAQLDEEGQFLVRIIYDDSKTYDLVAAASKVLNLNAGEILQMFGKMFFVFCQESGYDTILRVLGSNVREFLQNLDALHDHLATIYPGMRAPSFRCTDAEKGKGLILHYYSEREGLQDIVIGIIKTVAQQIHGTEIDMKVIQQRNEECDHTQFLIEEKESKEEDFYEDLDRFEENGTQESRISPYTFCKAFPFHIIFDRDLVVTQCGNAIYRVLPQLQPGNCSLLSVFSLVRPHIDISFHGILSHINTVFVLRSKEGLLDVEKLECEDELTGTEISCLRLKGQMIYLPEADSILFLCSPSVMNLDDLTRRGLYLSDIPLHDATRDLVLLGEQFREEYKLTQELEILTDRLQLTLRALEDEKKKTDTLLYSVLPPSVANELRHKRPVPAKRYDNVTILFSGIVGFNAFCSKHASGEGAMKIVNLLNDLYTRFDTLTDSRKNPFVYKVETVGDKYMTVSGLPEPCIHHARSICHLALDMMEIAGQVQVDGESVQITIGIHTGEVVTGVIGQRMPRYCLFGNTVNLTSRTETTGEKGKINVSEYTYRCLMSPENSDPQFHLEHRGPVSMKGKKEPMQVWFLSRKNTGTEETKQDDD
In short: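 EC50 values derive from HTRF cGMP measurement after test compounds act for thirty minutes at room temperature, with or without 50% human serum. Before dosing, the sGC-transfected CHO cells spend one hour with the inhibitor ODQ (40 microM) in IBMX- and 0.1% BSA-containing buffer.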

[3] = pH 6.8, aqueous buffer, Solubility (pH 6.8), pH 6.8
[4] = pION system solution buffer, pH 4.5, pH 4.5, aqueous buffer, Solubility (pH 4.5), pH 4.5 buffer, 16-19 h incubation, 1.0% DMSO
[5] = pION system solution buffer, pH 7.4, pH 7.4, aqueous buffer, Solubility (pH 7.4), pH 7.4 buffer, 16-19 h incubation, 1.0% DMSO

| Compound | solubility [1, 3] | solubility [1, 4] | EC50 [2] | solubility [1, 5] |
| --- | --- | --- | --- | --- |
| Cc1ccc(OCc2ccc(C(=O)N3CCC[C@@H](O)C3)cc2C)c(-c2csc(N3C[C@H]4CC[C@@H](C3)[C@H]4C(=O)O)n2)c1 [Compound 312] | 13 µg/mL (≈ 22.6 µM) | 0.26 µg/mL (≈ 0.452 µM) | 35 nM | – |
| Cc1ccc(OCc2ccc(C(=O)N(C)Cc3cnn(C)c3)cc2C)c(-c2csc(N3C[C@H]4CC[C@@H](C3)[C@H]4C(=O)O)n2)c1 [Compound 315] | 54 µg/mL (≈ 90 µM) | < 0.1 µg/mL | 57 nM | > 60 µg/mL |
| Cc1ccc(OCc2ccc(C(=O)N3CCCOCC3)cc2C)c(-c2csc(N3C[C@H]4CC[C@@H](C3)[C@H]4C(=O)O)n2)c1 [Compound 316] | 64 µg/mL (≈ 111 µM) | < 0.1 µg/mL | 15 nM | – |
| Cc1ccc(OCc2ccc(C(=O)N3CCC(F)(F)CC3)cc2C)c(-c2csc(N3C[C@H]4CC[C@@H](C3)[C@H]4C(=O)O)n2)c1 [Compound 317] | 41 µg/mL (≈ 68.8 µM) | < 0.1 µg/mL | 20 nM | – |
| Cc1ccc(OCc2ccc(C(=O)N3CCC(F)(F)C3)cc2C)c(-c2csc(N3C[C@H]4CC[C@@H](C3)[C@H]4C(=O)O)n2)c1 [Compound 320] | 36 µg/mL (≈ 61.9 µM) | < 0.1 µg/mL | 15 nM | – |
| COC1CCN(C(=O)c2ccc(COc3ccc(C)cc3-c3csc(N4C[C@H]5CC[C@@H](C4)[C@H]5C(=O)O)n3)c(C)c2)CC1 [Compound 321] | 41 µg/mL (≈ 69.5 µM) | 0.13 µg/mL (≈ 0.22 µM) | 55 nM | – |
| COC1CCCN(C(=O)c2ccc(COc3ccc(C)cc3-c3csc(N4C[C@H]5CC[C@@H](C4)[C@H]5C(=O)O)n3)c(C)c2)C1 (some centres unmarked) [Compound 322] | 42 µg/mL (≈ 71.2 µM) | 0.15 µg/mL (≈ 0.254 µM) | 19 nM | – |
| Cc1ccc(OCc2ccc(C(=O)N3CCC(C#N)CC3)cc2C)c(-c2csc(N3C[C@H]4CC[C@@H](C3)[C@H]4C(=O)O)n2)c1 [Compound 323] | 39 µg/mL (≈ 66.7 µM) | < 0.1 µg/mL | 51 nM | – |
| Cc1ccc(OCc2ccc(C(=O)N3CC[C@@H](CO)C3)cc2C)c(-c2csc(N3C[C@H]4CC[C@@H](C3)[C@H]4C(=O)O)n2)c1 [Compound 326] | 65 µg/mL (≈ 113 µM) | 0.21 µg/mL (≈ 0.365 µM) | 61 nM | – |
| Cc1ccc(OCc2ccc(C(=O)N3CCn4ncnc4C3)cc2C)c(-c2csc(N3C[C@H]4CC[C@@H](C3)[C@H]4C(=O)O)n2)c1 [Compound 327] | 71 µg/mL (≈ 119 µM) | < 0.1 µg/mL | 14 nM | – |
| CO[C@H]1CCN(C(=O)c2ccc(COc3ccc(C)cc3-c3csc(N4C[C@H]5CC[C@@H](C4)[C@H]5C(=O)O)n3)c(C)c2)C1 [Compound 328] | 62 µg/mL (≈ 108 µM) | < 0.1 µg/mL | 29 nM | – |
| CO[C@@H]1CCN(C(=O)c2ccc(COc3ccc(C)cc3-c3csc(N4C[C@H]5CC[C@@H](C4)[C@H]5C(=O)O)n3)c(C)c2)C1 [Compound 329] | 56 µg/mL (≈ 97.3 µM) | < 0.1 µg/mL | 23 nM | – |
| Cc1ccc(OCc2ccc(C(=O)N(C)CC#N)cc2C)c(-c2csc(N3C[C@H]4CC[C@@H](C3)[C@H]4C(=O)O)n2)c1 [Compound 330] | 40 µg/mL (≈ 73.4 µM) | < 0.1 µg/mL | 52 nM | – |
| Cc1ccc(OCc2ccc(C(=O)N(C)Cc3ncc[nH]3)cc2C)c(-c2csc(N3C[C@H]4CC[C@@H](C3)[C@H]4C(=O)O)n2)c1 [Compound 334] | 24 µg/mL (≈ 41 µM) | 11 µg/mL (≈ 18.8 µM) | 160 nM | – |
| CCOCCN(C)C(=O)c1ccc(COc2ccc(C)cc2-c2csc(N3C[C@H]4CC[C@@H](C3)[C@H]4C(=O)O)n2)c(C)c1 [Compound 335] | 49 µg/mL (≈ 84.8 µM) | 0.4 µg/mL (≈ 0.692 µM) | 70 nM | – |
| Cc1ccc(OCc2ccc(C(=O)N3CCCC(C)(O)C3)cc2C)c(-c2csc(N3C[C@H]4CC[C@@H](C3)[C@H]4C(=O)O)n2)c1 (some centres unmarked) [Compound 336] | 6.1 µg/mL (≈ 10.3 µM) | 0.16 µg/mL (≈ 0.271 µM) | 79 nM | – |
| Cc1ccc(OCc2ccc(C(=O)N3CCCC(C#N)C3)cc2C)c(-c2csc(N3C[C@H]4CC[C@@H](C3)[C@H]4C(=O)O)n2)c1 (some centres unmarked) [Compound 337] | 1.5 µg/mL (≈ 2.57 µM) | < 0.1 µg/mL | 14 nM | – |
| Cc1ccc(OCc2ccc(C(=O)N(C)Cc3nccn3C)cc2C)c(-c2csc(N3C[C@H]4CC[C@@H](C3)[C@H]4C(=O)O)n2)c1 [Compound 339] | 48 µg/mL (≈ 80 µM) | 32 µg/mL (≈ 53.4 µM) | 41 nM | – |
| Cc1ccc(OCc2ccc(C(=O)N3C[C@H]4CC[C@@H](C3)O4)cc2C)c(-c2csc(N3C[C@H]4CC[C@@H](C3)[C@H]4C(=O)O)n2)c1 [Compound 340] | 0.26 µg/mL (≈ 0.442 µM) | < 0.1 µg/mL | 19 nM | – |
| Cc1ccc(OCc2ccc(C(=O)N3CC[C@@H](O)C3)cc2C)c(-c2csc(N3C[C@H]4CC[C@@H](C3)[C@H]4C(=O)O)n2)c1 [Compound 341] | 63 µg/mL (≈ 112 µM) | 1.1 µg/mL (≈ 1.96 µM) | 110 nM | – |
| Cc1ccc(OCc2ccc(C(=O)N(C)CC3(CO)CC3)cc2C)c(-c2csc(N3C[C@H]4CC[C@@H](C3)[C@H]4C(=O)O)n2)c1 [Compound 342] | 55 µg/mL (≈ 93.3 µM) | < 0.1 µg/mL | 110 nM | – |

Continued, values first:

| solubility [1, 3] | solubility [1, 4] | EC50 [2] | solubility [1, 5] | Compound |
| --- | --- | --- | --- | --- |
| 78 µg/mL (≈ 139 µM) | 1.3 µg/mL (≈ 2.31 µM) | 120 nM | – | Cc1ccc(OCc2ccc(C(=O)N3CC[C@H](O)C3)cc2C)c(-c2csc(N3C[C@H]4CC[C@@H](C3)[C@H]4C(=O)O)n2)c1 [Compound 313] |
| 68 µg/mL (≈ 118 µM) | 2.4 µg/mL (≈ 4.18 µM) | 63 nM | – | Cc1ccc(OCc2ccc(C(=O)N3CCNC(=O)C3)cc2C)c(-c2csc(N3C[C@H]4CC[C@@H](C3)[C@H]4C(=O)O)n2)c1 [Compound 314] |
| 34 µg/mL (≈ 56.7 µM) | < 0.1 µg/mL | 66 nM | > 53 µg/mL | Cc1ccc(OCc2ccc(C(=O)N(C)Cc3ccnn3C)cc2C)c(-c2csc(N3C[C@H]4CC[C@@H](C3)[C@H]4C(=O)O)n2)c1 [Compound 318] |
| 12 µg/mL (≈ 20.8 µM) | 0.23 µg/mL (≈ 0.399 µM) | 70 nM | – | Cc1ccc(OCc2ccc(C(=O)N3CCC[C@H](O)C3)cc2C)c(-c2csc(N3C[C@H]4CC[C@@H](C3)[C@H]4C(=O)O)n2)c1 [Compound 319] |
| 73 µg/mL (≈ 129 µM) | 0.92 µg/mL (≈ 1.63 µM) | 66 nM | – | Cc1ccc(OCc2ccc(C(=O)N(C)CCCO)cc2C)c(-c2csc(N3C[C@H]4CC[C@@H](C3)[C@H]4C(=O)O)n2)c1 [Compound 324] |
| 59 µg/mL (≈ 102 µM) | 0.17 µg/mL (≈ 0.295 µM) | 29 nM | – | Cc1ccc(OCc2ccc(C(=O)N3CC[C@H](CO)C3)cc2C)c(-c2csc(N3C[C@H]4CC[C@@H](C3)[C@H]4C(=O)O)n2)c1 [Compound 325] |
| 47 µg/mL (≈ 78.4 µM) | 42 µg/mL (≈ 70 µM) | 140 nM | – | Cc1ccc(OCc2ccc(C(=O)N(C)Cc3cncn3C)cc2C)c(-c2csc(N3C[C@H]4CC[C@@H](C3)[C@H]4C(=O)O)n2)c1 [Compound 331] |
| 35 µg/mL (≈ 59.3 µM) | 0.14 µg/mL (≈ 0.237 µM) | 30 nM | – | CCOC1CCN(C(=O)c2ccc(COc3ccc(C)cc3-c3csc(N4C[C@H]5CC[C@@H](C4)[C@H]5C(=O)O)n3)c(C)c2)C1 (some centres unmarked) [Compound 332] |
| 59 µg/mL (≈ 98.5 µM) | 1.1 µg/mL (≈ 1.84 µM) | 110 nM | – | Cc1ccc(OCc2ccc(C(=O)N3CCn4cnnc4C3)cc2C)c(-c2csc(N3C[C@H]4CC[C@@H](C3)[C@H]4C(=O)O)n2)c1 [Compound 333] |
| 58 µg/mL (≈ 100 µM) | 0.13 µg/mL (≈ 0.225 µM) | 43 nM | – | COCCCN(C)C(=O)c1ccc(COc2ccc(C)cc2-c2csc(N3C[C@H]4CC[C@@H](C3)[C@H]4C(=O)O)n2)c(C)c1 [Compound 338] |
